ChEMBL document CHEMBL1201862, “PubChem BioAssay data set” (2004)
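Growth conditions: 96-well plates. Treatment: test compound, 48 hours, 5 concentrations. Analysis: linear interpolation between bracketing concentrations; unreached endpoints set to highest concentration. GI50 = concentration required for 50% inhibition of growth.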 Calls of active or inactive are those of the source. Rule as the data show it: active = GI50 up to about 1.1 µM and inactive = higher.

Assays:
Test in all cases: growth of human tumour cells (NCI), 48 h
U-251 = system: U-251
NCI/ADR-RES = system: NCI/ADR-RES
PC-3 = system: PC-3
K562 = system: K562
SK-MEL-5 = system: SK-MEL-5
EKVX = system: EKVX
KM12 = system: KM12
SW-620 = system: SW-620
CCRF-CEM = system: CCRF-CEM
MDA-MB-435 = system: MDA-MB-435
Hs-578T = system: Hs-578T
SR = system: SR
SNB-75 = system: SNB-75
MOLT-4 = system: MOLT-4
CAKI-1 = system: CAKI-1
HCT-116 = system: HCT-116
UACC-257 = system: UACC-257
ACHN = system: ACHN
LOX IMVI = system: LOX IMVI
DU-145 = system: DU-145
HOP-92 = system: HOP-92
A549 = system: A549
SF-295 = system: SF-295
HT-29 = system: HT-29
M14 = system: M14
SK-MEL-28 = system: SK-MEL-28
HCT-15 = system: HCT-15
NCI-H522 = system: NCI-H522
SK-OV-3 = system: SK-OV-3
Malme-3M = system: Malme-3M
MDA-MB-231 = system: MDA-MB-231
SN12C = system: SN12C
BT-549 = system: BT-549
MDA-N = system: MDA-N
RXF 393 = system: RXF 393
OVCAR-8 = system: OVCAR-8
COLO 205 = system: COLO 205
OVCAR-3 = system: OVCAR-3
NCI-H23 = system: NCI-H23
RPMI-8226 = system: RPMI-8226
HL-60 = system: HL-60
UACC-62 = system: UACC-62
A498 = system: A498
SF-268 = system: SF-268
SK-MEL-2 = system: SK-MEL-2
UO-31 = system: UO-31
786-0 = system: 786-0
HOP-62 = system: HOP-62
TK-10 = system: TK-10
IGROV-1 = system: IGROV-1
OVCAR-5 = system: OVCAR-5
NCI-H226 = system: NCI-H226
OVCAR-4 = system: OVCAR-4
NCI-H460 = system: NCI-H460
SNB-19 = system: SNB-19

SMILES: Cc1cc(-c2nc3c(F)cccc3s2)ccc1N
- GI50 (U-251): 69.2 µM (inactive)
- GI50 (NCI/ADR-RES): > 100 µM (inactive)
- GI50 (PC-3): 97.5 µM (inactive)
- GI50 (K562): 40.3 µM (inactive)
- GI50 (SK-MEL-5): 62.2 µM (inactive)
- GI50 (EKVX): 2.42 µM (inactive)
- GI50 (KM12): 38.9 µM (inactive)
- GI50 (SW-620): > 100 µM (inactive)
- GI50 (CCRF-CEM): 3.94 µM (inactive)
- GI50 (MDA-MB-435): 57.3 µM (inactive)
- GI50 (Hs-578T): 98.6 µM (inactive)
- GI50 (SR): 48 µM (inactive)
- GI50 (SNB-75): 52.1 µM (inactive)
- GI50 (MOLT-4): 10.7 µM (inactive)
- GI50 (CAKI-1): 50.4 µM (inactive)
- GI50 (HCT-116): 85.1 µM (inactive)
- GI50 (UACC-257): 82.6 µM (inactive)
- GI50 (ACHN): 30 µM (inactive)
- GI50 (LOX IMVI): 61.4 µM (inactive)
- GI50 (DU-145): 52.4 µM (inactive)
- GI50 (HOP-92): > 100 µM (inactive)
- GI50 (A549): 49.3 µM (inactive)
- GI50 (SF-295): 41.2 µM (inactive)
- GI50 (HT-29): 44.8 µM (inactive)
- GI50 (M14): 97.5 µM (inactive)
- GI50 (SK-MEL-28): > 100 µM (inactive)
- GI50 (HCT-15): 84.9 µM
- GI50 (NCI-H522): 11.3 µM (inactive)
- GI50 (SK-OV-3): > 100 µM (inactive)
- GI50 (Malme-3M): 28.8 µM (inactive)
- GI50 (MDA-MB-231): > 100 µM (inactive)
- GI50 (SN12C): 28.2 µM (inactive)
- GI50 (BT-549): 66.1 µM (inactive)
- GI50 (MDA-N): 70.1 µM (inactive)
- GI50 (RXF 393): 41.7 µM (inactive)
- GI50 (OVCAR-8): > 100 µM (inactive)
- GI50 (COLO 205): 80.5 µM (inactive)
- GI50 (OVCAR-3): > 100 µM (inactive)
- GI50 (NCI-H23): 32.8 µM (inactive)
- GI50 (RPMI-8226): 26.9 µM (inactive)
- GI50 (HL-60): 43.8 µM (inactive)
- GI50 (UACC-62): 21 µM (inactive)
- GI50 (A498): 8.2 µM (inactive)
- GI50 (SF-268): 39.9 µM (inactive)
- GI50 (SK-MEL-2): > 100 µM (inactive)
- GI50 (UO-31): 12.4 µM (inactive)
- GI50 (786-0): 92.5 µM (inactive)
- GI50 (HOP-62): 62.5 µM (inactive)

SMILES: COc1nc(O)nc2c1C(c1ccc([N+](=O)[O-])cc1)c1c(OC)nc(O)nc1O2
- GI50 (U-251): > 100 µM (inactive)
- GI50 (NCI/ADR-RES): > 100 µM (inactive)
- GI50 (TK-10): > 100 µM (inactive)
- GI50 (PC-3): > 100 µM (inactive)
- GI50 (SK-MEL-5): > 100 µM (inactive)
- GI50 (IGROV-1): > 100 µM (inactive)
- GI50 (EKVX): > 100 µM (inactive)
- GI50 (KM12): > 100 µM (inactive)
- GI50 (SW-620): > 100 µM (inactive)
- GI50 (CCRF-CEM): > 100 µM (inactive)
- GI50 (MDA-MB-435): > 100 µM (inactive)
- GI50 (Hs-578T): > 100 µM (inactive)
- GI50 (MOLT-4): > 100 µM (inactive)
- GI50 (CAKI-1): > 100 µM (inactive)
- GI50 (HCT-116): > 100 µM (inactive)
- GI50 (OVCAR-5): > 100 µM (inactive)
- GI50 (UACC-257): > 100 µM (inactive)
- GI50 (ACHN): > 100 µM (inactive)
- GI50 (DU-145): > 100 µM (inactive)
- GI50 (NCI-H226): > 100 µM (inactive)
- GI50 (A549): > 100 µM (inactive)
- GI50 (SF-295): > 100 µM (inactive)
- GI50 (HT-29): > 100 µM (inactive)
- GI50 (M14): > 100 µM (inactive)
- GI50 (SK-MEL-28): > 100 µM (inactive)
- GI50 (HCT-15): > 100 µM
- GI50 (NCI-H522): > 100 µM (inactive)
- GI50 (OVCAR-4): > 100 µM (inactive)
- GI50 (SK-OV-3): > 100 µM (inactive)
- GI50 (MDA-MB-231): > 100 µM (inactive)
- GI50 (SN12C): > 100 µM (inactive)
- GI50 (BT-549): > 100 µM (inactive)
- GI50 (MDA-N): > 100 µM (inactive)
- GI50 (RXF 393): > 100 µM (inactive)
- GI50 (OVCAR-8): > 100 µM (inactive)
- GI50 (COLO 205): > 100 µM (inactive)
- GI50 (OVCAR-3): > 100 µM (inactive)
- GI50 (NCI-H23): > 100 µM (inactive)
- GI50 (RPMI-8226): > 100 µM (inactive)
- GI50 (HL-60): > 100 µM (inactive)
- GI50 (UACC-62): > 100 µM (inactive)
- GI50 (A498): > 100 µM (inactive)
- GI50 (SF-268): > 100 µM (inactive)
- GI50 (NCI-H460): > 100 µM (inactive)
- GI50 (SK-MEL-2): > 100 µM (inactive)
- GI50 (UO-31): > 100 µM (inactive)
- GI50 (786-0): > 100 µM (inactive)
- GI50 (SNB-19): > 100 µM (inactive)
- GI50 (HOP-62): > 100 µM (inactive)
